Measurements taken from PubChem BioAssay (NCI).
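Exposure lasted 48 hours, with cells grown in 96-well plates and compounds tested at five concentrations. TGI denotes the concentration required for complete inhibition of growth.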

Key:
Assay in all cases: NCI-60 cell line screen, 48 h
[1] = test system: 786-0 renal
[2] = test system: SN12C renal
[3] = test system: SF-295 CNS
[4] = test system: BT-549 breast
[5] = test system: K-562 leukemia
[6] = test system: OVCAR-4 ovarian
[7] = test system: SK-OV-3 ovarian
[8] = test system: UACC-62 melanoma
[9] = test system: HCC-2998 colon
[10] = test system: CAKI-1 renal
[11] = test system: ACHN renal
[12] = test system: MDA-N

| Structure (SMILES) | TGI [1] [µM] | TGI [2] [µM] | TGI [3] [µM] | TGI [4] [µM] | TGI [5] [µM] | TGI [6] [µM] | TGI [7] [µM] | TGI [8] [µM] | TGI [9] [µM] | TGI [10] [µM] | TGI [11] [µM] | TGI [12] [µM] |
| --- | --- | --- | --- | --- | --- | --- | --- | --- | --- | --- | --- | --- |
| CC(C)C[C@H](NC(=O)CCc1cccc2ccccc12)B(O)O | 28.3 | 21 | 20.2 | 2.15 | 21.4 | 29 | > 86.4 | 5.59 | 2.62 | 3.94 | > 100 |  |
| Clc1nc(Nc2nc3ccccc3[nH]2)nc(Cl)c1-c1ccccc1 | 34.6 | 31.1 | 46.8 | 42.5 | > 100 | 32.8 | 50.5 | 36.9 |  | > 100 | 34.7 | 23.7 |
| Cc1ccc(NC(=S)N=Nc2c(O)[nH]c3ccccc23)cc1 | > 100 | > 100 | > 100 |  | > 100 | > 100 | > 100 | > 100 | > 100 | > 100 | > 100 | > 100 |
| O=c1oc2ccccc2n1CCCn1c(=O)oc2ccccc21 | > 100 | > 100 | > 100 | > 100 | > 100 |  | > 100 | > 100 |  | > 100 | > 100 |  |
| CNC(=O)OCC1=C(COC(=O)NC)C(C)N(c2ccccc2)C1 (configuration not stated) | > 100 | > 100 | > 100 | > 100 | 72 | > 100 | > 100 | 68.8 | 80.3 |  | > 100 | > 100 |
| COc1ccc(S(=O)(=O)Nc2ccc(-c3csc(N4C(=O)/C(=C/c5cccs5)N=C4c4ccccc4)n3)cc2)cc1Cl | > 100 | > 100 | > 100 |  | > 100 | > 100 | > 100 | > 100 | > 100 | > 100 | > 100 | > 100 |
| COc1ccc2c(c1)C=C(C(C)(C)C)NS2(=O)=O | > 100 | > 100 | > 100 |  | > 100 | > 100 | > 100 | > 100 | > 100 | > 100 | > 100 |  |
| C[C@H](CO)C1=CC(C#C[Si](C)(C)C)N(C(=O)Oc2ccccc2)c2ccccc21 (some centres not stated) | 27.2 | 25.5 | 14.3 |  | > 100 | 21.8 | 31.1 | 19.9 | 30.6 | 28.7 | 26.8 | 13.3 |
| N#CC1=C(S)N(C2OC(CO)C(O)C(O)C2O)C(c2ccccc2)=CC1c1cccs1 (configuration not stated) | 35.7 | 32.4 | 34.8 | 30.4 | > 100 | > 100 |  | 48.3 | 44.8 | 50.4 | 40.8 | 30.9 |
| Brc1ccc(C2CC3(c4ccccc4)ON=C(c4ccccc4)N3c3ccccc3S2)cc1 (configuration not stated) | > 100 | > 100 | > 100 | > 100 | > 100 | > 100 | > 100 | > 100 | > 100 |  | > 100 | > 100 |
| COc1cc(OC2OC(CO)C(O)C(O)C2O)c2c(c1)O[C@@H]1[C@H](O)Oc3cc(OC)c(OC)cc3[C@]1(O)C2=O (some centres not stated) | > 25 | > 25 | > 25 |  | > 25 | > 25 | > 25 | > 25 | > 25 | > 25 | > 25 | > 25 |
| NC(Cc1ccc(O)cn1)C(=O)O (configuration not stated) | > 100 | > 100 | > 100 | > 100 | > 100 | > 100 |  |  | > 100 | > 100 | > 100 | > 100 |
| Cc1ccc2c(=O)c(C(=O)NNC(=S)NC3CCCCC3)c[nH]c2n1 | > 100 | > 100 | > 100 | > 100 | > 100 | > 100 |  | > 100 |  | > 100 | > 100 | > 100 |
| CN(C)c1c(C2CC(O)C(CO)O2)c(=O)c1=O (configuration not stated) | > 100 | > 100 | > 100 | > 100 | > 100 | > 100 | > 100 | > 100 | > 100 |  | > 100 | > 100 |
| CC(=O)OCCCCn1cnc2c(Cl)nc(Nc3ccccc3)nc21 | > 100 | > 100 | > 100 | > 100 | > 100 | > 100 |  | > 100 | > 100 | 62 | > 100 | > 100 |
| COc1ccc(NC(=O)CC(=O)N2N=C(C)C(N=Nc3ccc(C(=O)O)cc3)C2=O)cc1 (configuration not stated) | > 100 | > 100 | > 100 |  | > 100 | > 100 |  | > 100 | > 100 | > 100 | > 100 | > 100 |
| O=C(NNC(=O)c1c(Cl)c(Cl)c(Cl)c(Cl)c1-c1nc2ccccc2[nH]1)c1ccc(Cl)cc1 | > 100 | > 100 | > 100 | > 100 | > 100 | > 100 | > 100 | > 100 |  | > 100 | > 100 | 53.4 |
| S=C(S)N1CCN(c2ccccc2)CC1 | > 100 | > 100 | > 100 | > 100 | > 100 |  |  |  | > 100 | > 100 | > 100 | > 100 |
| C/C(=N\Nc1nc2ccccc2o1)c1cc2ccccc2cn1 | 6.61 | 33.7 | 4.56 | 3.23 |  | 8.25 | 8.15 | 2.53 |  | 11.1 | 2.55 | 35.3 |
| CC(c1ccccc1)C(O)S(=O)(=O)O (configuration not stated) | > 100 | > 100 | > 100 |  |  | > 100 | > 100 | > 100 |  |  | > 100 |  |
